# Experimental data taken from US20080058213A1, “Benzoxazole Compounds” (priority 2004, published 2008).
# What was measured:
# Format in all cases: in vivo
# [1] = tested on: barnyard grass (Echinochloa crusgalli); assay: Weed control test for paddy field (Test Example 1): barnyard grass; details: paddy pots, treated at 1.0 leaf stage of barnyard grass, examined after 3 weeks
# Description: (§1) Paddy field soil was filled in 1/10,000 are pots, kneaded with adequate amounts of water and chemical fertilizer, seeded with barnyard grass (Echinochloa crusgalli), Monochoria (Monochoria vaginalis), Japanese bulrush (Scirpus juncoides) and flat sedge (Cyperus serotinus), and further transplanted with 2.0 leaf stage of rice plant. The pots were maintained under the water-filled condition to a depth of 3 cm.
# (§2) Wettable powders containing the compounds (1) as identified in Table 1, which were formulated following Production Example 2, were diluted with adequate amount of water and applied to the pots dropwise with pippet at a prescribed dose of the active ingredients per are, at 1.0 leaf stage of the barnyard grass.
# (§3) After placing the pots in a glasshouse which was controlled at an average temperature of 25° C. for 3 weeks, herbicidal effect was examined.
# (§4) Evaluation of the herbicidal effect is shown in the following six grades, by comparing the condition of untreated control and growth inhibition (%): • 0: 0%-less than 20% • 1: 20%-less than 40% • 2: 40%-less than 60% • 3: 60%-less than 80% • 4: 80%-less than 100% • 5: 100%.
# [2] = tested on: Monochoria (Monochoria vaginalis); assay: Weed control test for paddy field (Test Example 1): Monochoria; details: paddy pots, treated at 1.0 leaf stage of barnyard grass, examined after 3 weeks
# Description: as §1, §2, §3, §4
# [3] = tested on: Japanese bulrush (Scirpus juncoides); assay: Weed control test for paddy field (Test Example 1): Japanese bulrush; details: paddy pots, treated at 1.0 leaf stage of barnyard grass, examined after 3 weeks
# Description: as §1, §2, §3, §4
# [4] = tested on: flat sedge (Cyperus serotinus); assay: Weed control test for paddy field (Test Example 1): flat sedge; details: paddy pots, treated at 1.0 leaf stage of barnyard grass, examined after 3 weeks
# Description: as §1, §2, §3, §4
# [5] = tested on: rice plant; assay: Weed control test for paddy field (Test Example 1): phytotoxicity to rice plant; details: paddy pots, treated at 1.0 leaf stage of barnyard grass, examined after 3 weeks
# Description: as §1, §2, §3
# Evaluation of phytotoxicity is shown in the following six grades, as compared with the condition of untreated control: • 0: normal growth • 1: little damaged • 2: low damaged • 3: medium damaged • 4: serious damaged • 5: complete killed.
# [6] = tested on: southern crabgrass (Digitaria ciliaris); assay: Soil treatment test for upland field (Test Example 2): southern crabgrass; details: soil treatment before germination, examined after 3 weeks
# How it was run: (§5)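 Grades 0–5 reflect percent growth inhibition compared with untreated pots (20% steps; grade 5 = complete). Treatment is a pre-germination surface soil spray of wettable powder in water, 15 liters per are, followed by 3 weeks' glasshouse growth at about 25° C.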
# [7] = tested on: common lambsquaters (Chenopodium album); assay: Soil treatment test for upland field (Test Example 2): common lambsquaters; details: soil treatment before germination, examined after 3 weeks
# How it was run: as §5
# [8] = tested on: slender amaranth (Amaranthus viridis); assay: Soil treatment test for upland field (Test Example 2): slender amaranth; details: soil treatment before germination, examined after 3 weeks
# How it was run: as §5
# [9] = tested on: common purslane (Portulaca oleracea); assay: Soil treatment test for upland field (Test Example 2): common purslane; details: soil treatment before germination, examined after 3 weeks
# How it was run: as §5
# [10] = tested on: velvetleaf (Abutilon theophrasti); assay: Soil treatment test for upland field (Test Example 2): velvetleaf; details: soil treatment before germination, examined after 3 weeks
# How it was run: as §5
# [11] = tested on: wheat; assay: Soil treatment test for upland field (Test Example 2): phytotoxicity to wheat; details: soil treatment before germination, examined after 3 weeks
# [12] = tested on: corn; assay: Soil treatment test for upland field (Test Example 2): phytotoxicity to corn; details: soil treatment before germination, examined after 3 weeks
# [13] = tested on: soybean; assay: Soil treatment test for upland field (Test Example 2): phytotoxicity to soybean; details: soil treatment before germination, examined after 3 weeks
# [14] = tested on: southern crabgrass; assay: Foliage treatment test for upland field (Test Example 3): southern crabgrass; details: foliage treatment at 1.0-2.0 leaf stage of southern crabgrass, examined after 3 weeks
# How it was run: (§6)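 Weeds were sown in compost-soil pots in a 25° C glasshouse. Wettable-powder formulations, diluted in water to the prescribed active-ingredient dose, were sprayed at 15 liters per are when southern crabgrass reached the 1.0-2.0 leaf stage. After 3 weeks, growth inhibition versus untreated control was scored 0 (under 20%) to 5 (100%).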
# [15] = tested on: common lambsquaters; assay: Foliage treatment test for upland field (Test Example 3): common lambsquaters; details: foliage treatment at 1.0-2.0 leaf stage of southern crabgrass, examined after 3 weeks
# How it was run: as §6
# [16] = tested on: slender amaranth; assay: Foliage treatment test for upland field (Test Example 3): slender amaranth; details: foliage treatment at 1.0-2.0 leaf stage of southern crabgrass, examined after 3 weeks
# How it was run: as §6
# [17] = tested on: common purslane; assay: Foliage treatment test for upland field (Test Example 3): common purslane; details: foliage treatment at 1.0-2.0 leaf stage of southern crabgrass, examined after 3 weeks
# How it was run: as §6
# [18] = tested on: velvetleaf; assay: Foliage treatment test for upland field (Test Example 3): velvetleaf; details: foliage treatment at 1.0-2.0 leaf stage of southern crabgrass, examined after 3 weeks
# How it was run: as §6
# [19] = tested on: wheat; assay: Foliage treatment test for upland field (Test Example 3): phytotoxicity to wheat; details: foliage treatment at 1.0-2.0 leaf stage of southern crabgrass, examined after 3 weeks
# How it was run: (§7)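 Crops sown in compost-mixed soil pots, kept in a glasshouse at 25° C. average. Effect scored after 3 weeks versus untreated control on a 0–5 scale (0 normal growth, 5 complete kill).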
# [20] = tested on: corn; assay: Foliage treatment test for upland field (Test Example 3): phytotoxicity to corn; details: foliage treatment at 1.0-2.0 leaf stage of southern crabgrass, examined after 3 weeks
# How it was run: as §7
# [21] = tested on: soybean; assay: Foliage treatment test for upland field (Test Example 3): phytotoxicity to soybean; details: foliage treatment at 1.0-2.0 leaf stage of southern crabgrass, examined after 3 weeks
# How it was run: as §7
smiles,measurement,setting,value
CCOCC(=Cc1cccc(C(F)(F)F)c1)c1nc2cc(C(F)(F)F)ccc2o1 [Compound 54],Herbicidal Effect Barnyard grass,[1]; dose 2.5 g ai/a,5 (100%)
same,Herbicidal Effect Barnyard grass,[1]; dose 5 g ai/a,5 (100%)
same,Herbicidal Effect Monochoria vaginalis,[2]; dose 2.5 g ai/a,5 (100%)
same,Herbicidal Effect Monochoria vaginalis,[2]; dose 5 g ai/a,5 (100%)
same,Herbicidal Effect Japanese bulrush,[3]; dose 2.5 g ai/a,4 (80%-less than 100%)
same,Herbicidal Effect Japanese bulrush,[3]; dose 5 g ai/a,5 (100%)
same,Herbicidal Effect Flat sedge,[4]; dose 2.5 g ai/a,3 (60%-less than 80%)
same,Herbicidal Effect Flat sedge,[4]; dose 5 g ai/a,4 (80%-less than 100%)
same,Phytotoxicity Rice plant,[5]; dose 2.5 g ai/a,1
same,Phytotoxicity Rice plant,[5]; dose 5 g ai/a,1
same,Herbicidal Effect southern crabgrass,[6]; dose 2.5 g ai/a,5 (100%)
same,Herbicidal Effect southern crabgrass,[6]; dose 5 g ai/a,5 (100%)
same,Herbicidal Effect common lambsquaters,[7]; dose 2.5 g ai/a,5 (100%)
same,Herbicidal Effect common lambsquaters,[7]; dose 5 g ai/a,5 (100%)
same,Herbicidal Effect slender amaranth,[8]; dose 2.5 g ai/a,5 (100%)
same,Herbicidal Effect slender amaranth,[8]; dose 5 g ai/a,5 (100%)
same,Herbicidal Effect common purslane,[9]; dose 2.5 g ai/a,5 (100%)
same,Herbicidal Effect common purslane,[9]; dose 5 g ai/a,5 (100%)
same,Herbicidal Effect velvetleaf,[10]; dose 2.5 g ai/a,5 (100%)
same,Herbicidal Effect velvetleaf,[10]; dose 5 g ai/a,5 (100%)
same,Phytotoxicity wheat,[11]; dose 2.5 g ai/a,1
same,Phytotoxicity wheat,[11]; dose 5 g ai/a,1
same,Phytotoxicity corn,[12]; dose 2.5 g ai/a,1
same,Phytotoxicity corn,[12]; dose 5 g ai/a,1
same,Phytotoxicity soybean,[13]; dose 2.5 g ai/a,0
same,Phytotoxicity soybean,[13]; dose 5 g ai/a,1
same,Herbicidal Effect southern crabgrass,[14]; dose 2.5 g ai/a,5 (100%)
same,Herbicidal Effect southern crabgrass,[14]; dose 5 g ai/a,5 (100%)
same,Herbicidal Effect Common lambsquatters,[15]; dose 2.5 g ai/a,5 (100%)
same,Herbicidal Effect Common lambsquatters,[15]; dose 5 g ai/a,5 (100%)
same,Herbicidal Effect slender amaranth,[16]; dose 2.5 g ai/a,5 (100%)
same,Herbicidal Effect slender amaranth,[16]; dose 5 g ai/a,5 (100%)
same,Herbicidal Effect common purslane,[17]; dose 2.5 g ai/a,5 (100%)
same,Herbicidal Effect common purslane,[17]; dose 5 g ai/a,5 (100%)
same,Herbicidal Effect velvetleaf,[18]; dose 2.5 g ai/a,5 (100%)
same,Herbicidal Effect velvetleaf,[18]; dose 5 g ai/a,5 (100%)
same,Phytotoxicity wheat,[19]; dose 2.5 g ai/a,1
same,Phytotoxicity wheat,[19]; dose 5 g ai/a,1
same,Phytotoxicity corn,[20]; dose 2.5 g ai/a,1
same,Phytotoxicity corn,[20]; dose 5 g ai/a,2
same,Phytotoxicity soybean,[21]; dose 2.5 g ai/a,2
same,Phytotoxicity soybean,[21]; dose 5 g ai/a,2
